# Source: the Kinase Knowledgebase extract (Sharma et al. 2016)
# pIC50: −log10 of the molar value.
# Target: EGFR (UniProt P00533)
# Assay: Inhibition of EGFR Kinase Activity
# Chain of EGFR (P00533 whole entry, looked up): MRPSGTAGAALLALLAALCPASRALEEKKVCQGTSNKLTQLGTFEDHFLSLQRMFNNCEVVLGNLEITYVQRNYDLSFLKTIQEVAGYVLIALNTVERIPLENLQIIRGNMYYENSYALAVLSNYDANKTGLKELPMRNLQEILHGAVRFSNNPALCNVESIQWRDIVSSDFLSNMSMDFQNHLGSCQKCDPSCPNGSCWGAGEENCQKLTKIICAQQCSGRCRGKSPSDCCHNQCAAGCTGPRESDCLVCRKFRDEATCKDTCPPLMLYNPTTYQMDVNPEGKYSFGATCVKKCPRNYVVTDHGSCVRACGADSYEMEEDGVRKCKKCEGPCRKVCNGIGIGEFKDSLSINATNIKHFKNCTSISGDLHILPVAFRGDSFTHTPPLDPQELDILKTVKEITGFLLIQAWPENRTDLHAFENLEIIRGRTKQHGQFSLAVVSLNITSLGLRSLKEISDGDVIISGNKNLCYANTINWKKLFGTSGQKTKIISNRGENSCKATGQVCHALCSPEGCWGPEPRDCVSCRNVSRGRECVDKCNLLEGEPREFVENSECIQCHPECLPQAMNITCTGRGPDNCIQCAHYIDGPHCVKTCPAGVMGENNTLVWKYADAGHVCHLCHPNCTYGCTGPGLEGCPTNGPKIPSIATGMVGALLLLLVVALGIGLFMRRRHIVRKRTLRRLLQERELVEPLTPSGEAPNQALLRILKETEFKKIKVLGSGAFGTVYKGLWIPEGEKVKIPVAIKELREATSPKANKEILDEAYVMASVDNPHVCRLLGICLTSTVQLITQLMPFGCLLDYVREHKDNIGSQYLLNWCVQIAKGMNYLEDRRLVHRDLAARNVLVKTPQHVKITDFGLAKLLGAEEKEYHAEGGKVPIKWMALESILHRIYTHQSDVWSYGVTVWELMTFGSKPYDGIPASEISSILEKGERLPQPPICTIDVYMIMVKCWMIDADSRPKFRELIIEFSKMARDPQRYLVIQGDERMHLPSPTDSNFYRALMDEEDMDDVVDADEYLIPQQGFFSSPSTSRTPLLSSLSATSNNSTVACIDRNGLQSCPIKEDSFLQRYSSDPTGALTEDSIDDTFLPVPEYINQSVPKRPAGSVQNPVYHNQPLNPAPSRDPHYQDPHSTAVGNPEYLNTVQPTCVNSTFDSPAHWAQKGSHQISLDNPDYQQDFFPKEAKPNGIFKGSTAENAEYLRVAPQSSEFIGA
row,pIC50,Structure (SMILES)
1,> 4.30,C=CC(=O)n1ncc2cc(Nc3ncnc(Nc4ccc5c(cnn5Cc5ccccc5)c4)n3)ccc21
2,> 4.30,C=CC(=O)Nc1ccc(Nc2ncnc(Nc3cc(OC)c(OC)c(OC)c3)n2)cc1
3,> 4.30,CC#CC(=O)Nc1cccc(Nc2ncnc(Nn3c(=O)[nH]c4ccccc43)n2)c1
4,> 4.30,C=CC(=O)Nc1ccc(Nc2ncnc(N(C)c3ccc4c(cnn4Cc4ccccc4)c3)n2)cc1
5,> 4.30,CC#CC(=O)Nc1cccc(Nc2ncnc(N(C)c3ccc(OCc4ccccc4)c(Cl)c3)n2)c1
6,> 4.30,C=CC(=O)Nc1cccc(Nc2ncnc(Nc3cccc(CC(=O)OC)c3)n2)c1
7,> 4.30,C=CC(=O)Nc1ccc(Nc2ncnc(N(C)c3cccc(CC(=O)OC)c3)n2)cc1
8,> 4.30,C=CC(=O)Nc1ccc(Nc2ncnc(Nc3cccc(CC(=O)OC)c3)n2)cc1
9,> 4.30,C=CC(=O)Nc1cccc(Nc2ncnc(N(C)c3ccc(OCCOC)c(OC)c3)n2)c1
10,> 4.30,C=CC(=O)Nc1cccc(Nc2ncnc(Nc3cccc(Cl)c3)n2)c1
11,> 4.30,C=CC(=O)Nc1ccc(Nc2ncnc(N(C)c3ccc(OCCOC)c(OC)c3)n2)cc1
12,> 4.30,C=CC(=O)Nc1cccc(Nc2ncnc(Nc3cc(OC)c(OC)c(OCCN4CCOCC4)c3)n2)c1
13,> 4.30,CCN(c1ccc2NN(=Cc2c1)Cc3ccccn3)c4ncnc(Nc5cccc(NC(=O)C#CC)c5)n4
14,> 4.30,C=CCN(c1ncnc(Nc2ccc(NC(=O)C=C)cc2)n1)N1CNc2ccccc21
15,> 4.30,C=CC(=O)Nc1ccc(Nc2ncnc(N(CC)c3ccc(OCC)c(OCC)c3)n2)cc1
16,> 4.30,C=CC(=O)Nc1ccc(Nc2ncnc(N(CC)c3cccc(C)c3)n2)cc1
17,> 4.30,CC#CC(=O)Nc1cccc(Nc2ncnc(N(CC)c3cccc(Cl)c3)n2)c1
18,> 4.30,C=CC(=O)Nc1cccc(Nc2ncnc(Nc3cccc(C)c3)n2)c1
19,> 4.30,C=CC(=O)Nc1cccc(Nc2ncnc(N(C)c3ccc(F)c(Cl)c3)n2)c1
20,> 4.30,CCN(c1ccc2NN(=Cc2c1)Cc3ccccn3)c4ncnc(Nc5ccc(NC(=O)C=C)cc5)n4

row,pIC50,Structure (SMILES)
1,> 4.30,CC#CC(=O)Nc1cccc(Nc2ncnc(Nc3ccc(F)c(Cl)c3)n2)c1
2,> 4.30,C=CC(=O)Nc1cccc(Nc2ncnc(Nn3c(=O)n(C(=O)C(C)(C)C)c4ccccc43)n2)c1
3,> 4.30,CC#CC(=O)Nc1cccc(Nc2ncnc(N(C)c3cccc(Cl)c3)n2)c1
4,> 4.30,C=CC(=O)Nc1ccc(Nc2ncnc(N(C)c3ccc(OC)c(OC)c3)n2)cc1
5,> 4.30,C=CCN(c1ccc(OCCO)cc1)c1ncnc(Nc2ccc(NC(=O)C=C)cc2)n1
6,> 4.30,C=CC(=O)N(OCCCN1CCOCC1)c1cccc(Nc2ncnc(NN3CCCc4ccc(Cl)cc43)n2)c1
7,> 4.30,C=CC(=O)Nc1ccc(Nc2ncnc(Nc3ccc4c(cnn4Cc4ccccc4)c3)n2)cc1
8,> 4.30,C=CC(=O)Nc1ccc(Nc2ncnc(N(C)C3CC3c3ccccc3)n2)cc1 (stereo unspecified)
9,> 4.30,C=CC(=O)Nc1cccc(Nc2ncnc(N(CC)C3CC3c3ccc(Cl)cc3)n2)c1 (stereo unspecified)
10,> 4.30,C=CCN(c1cc(OC)c(OC)c(OCCN2CCOCC2)c1)c1ncnc(Nc2cccc(NC(=O)C#CC)c2)n1
11,> 4.30,CC#CC(=O)Nc1cc(Nc2ncnc(Nc3ccc4c(ccn4Cc4ccccc4)c3)n2)ccc1OCCCC1CCN(C)CC1
12,> 4.30,C=CC(=O)N(CCCN1CCOCC1)c1cccc(Nc2ncnc(Nc3cccc(C)c3)n2)c1
13,> 4.30,C=CC(=O)Nc1cccc(Nc2ncnc(Nc3ccc(OCc4cccc(C(F)(F)F)c4)c(OC)c3)n2)c1
14,> 4.30,CC#CC(=O)Nc1cc(Nc2ncnc(Nc3ccc(OCc4ccccc4)c(Cl)c3)n2)ccc1OCCCC1CCN(C)CC1
15,> 4.30,C=CCN(c1ccc(F)c(Cl)c1)c1ncnc(Nc2ccc(NC(=O)C=C)cc2)n1
16,> 4.30,C=CCN(c1cccc(C)c1)c1ncnc(Nc2cccc(NC(=O)C#CC)c2)n1
17,> 4.30,C=CC(=O)Nc1ccc(Nc2ncnc(N(C)c3ccc(OCC)c(OCC)c3)n2)cc1
18,> 4.30,CC#CC(=O)Nc1cccc(Nc2ncnc(N(CC)c3cccc(CC(=O)OC)c3)n2)c1
19,> 4.30,C=CC(=O)Nc1ccc(Nc2ncnc(N(CC)c3ccc4c(cnn4Cc4ccccc4)c3)n2)cc1

# The next lines start with the molecule.
row,Structure (SMILES),pIC50
1,CC#CC(=O)Nc1cccc(Nc2ncnc(N(C)c3cc(OC)c(OC)c(OCCN4CCOCC4)c3)n2)c1,> 4.30
2,C=CC(=O)n1ncc2ccc(Nc3ncnc(Nc4ccc5c(cnn5Cc5ccccc5)c4)n3)cc21,> 4.30
3,C=CC(=O)Nc1cccc(Nc2ncnc(N(C)c3cc(Cl)cc4ccccc34)n2)c1,> 4.30
4,C=CC(=O)N(CCCN1CCOCC1)c1cccc(Nc2ncnc(Nc3ccc(OC)c(OC)c3)n2)c1,> 4.30
5,C=CC(=O)Nc1cccc(Nc2ncnc(Nc3ccc(OCC)c(OCC)c3)n2)c1,> 4.30
6,C=CC(=O)Nc1cccc(Nc2ncnc(N(CC)c3ccc4c(cnn4Cc4ccccc4)c3)n2)c1,> 4.30
7,C=CC(=O)Nc1cccc(Nc2ncnc(N(CC)c3cccc(C(N)=O)c3)n2)c1,> 4.30
8,C=CC(=O)Nc1ccc(Nc2ncnc(Nn3c(=O)[nH]c4ccccc43)n2)cc1,> 4.30
9,C=CC(=O)Nc1cccc(Nc2ncnc(N(C)c3ccc(OCCC)c(OCCC)c3)n2)c1,> 4.30
10,CC#CC(=O)Nc1cccc(Nc2ncnc(Nc3ccc4c(ccn4Cc4ccccc4)c3)n2)c1,> 4.30
11,CC#CC(=O)Nc1cccc(Nc2ncnc(Nc3ccc(OCC)c(OCC)c3)n2)c1,> 4.30
12,C=CCN(c1cccc(S(=O)(=O)c2ccc([N+](=O)[O-])cc2)c1)c1ncnc(Nc2ccc(NC(=O)C=C)cc2)n1,> 4.30
13,C=CC(=O)Nc1ccc(Nc2ncnc(N(CC)c3cccc(S(=O)(=O)c4ccc([N+](=O)[O-])cc4)c3)n2)cc1,> 4.30
14,C=CC(=O)Nc1cccc(Nc2ncnc(N(CC)c3cccc(C)c3)n2)c1,> 4.30
15,C=CCN(c1ccc(OCc2ccccc2)cc1)c1ncnc(Nc2cccc(NC(=O)C#CC)c2)n1,> 4.30
16,C=CC(=O)Nc1cc(Nc2ncnc(Nc3ccc4c(ccn4Cc4ccccc4)c3)n2)ccc1OCCCC1CCN(C)CC1,> 4.30
17,CC#CC(=O)Nc1cccc(Nc2ncnc(N(C)n3c(=O)[nH]c4ccccc43)n2)c1,> 4.30
18,C=CC(=O)Nc1cccc(Nc2ncnc(Nc3ccc(OCc4ccccc4)cc3)n2)c1,> 4.30
19,C=CC(=O)Nc1cccc(Nc2ncnc(NN3CCCc4ccc(Cl)cc43)n2)c1,> 4.30

row,Structure (SMILES),pIC50
1,CC#CC(=O)Nc1cccc(Nc2ncnc(N(CC)c3ccc(F)c(Cl)c3)n2)c1,> 4.30
2,CC#CC(=O)Nc1cccc(Nc2ncnc(Nc3cccc(Cl)c3)n2)c1,> 4.30
3,C#CCC(=O)Nc1cccc(Nc2ncnc(NN3CCCc4ccc(C(F)(F)F)cc43)n2)c1,> 4.30
4,C=CCN(c1ncnc(Nc2cccc(NC(=O)C=C)c2)n1)c1cc(Cl)cc2ccccc12,> 4.30
5,C=CCN(c1ccc(OC)c(OC)c1)c1ncnc(Nc2cccc(NC(=O)C#CC)c2)n1,> 4.30
6,CC#CC(=O)Nc1cccc(Nc2ncnc(N(C)n3c(=O)n(C(=O)C(C)(C)C)c4ccccc43)n2)c1,> 4.30
7,C=CC(=O)Nc1ccc(Nc2ncnc(N(C)c3ccc(C(=O)OC)cc3)n2)cc1,> 4.30
8,CC#CC(=O)Nc1cccc(Nc2ncnc(N(CC)C3CC3c3ccccc3)n2)c1 (stereo unspecified),> 4.30
9,C=CC(=O)Nc1ccc(Nc2ncnc(N(CC)c3ccc(OCc4ccccc4)cc3)n2)cc1,> 4.30
10,C=CC(=O)Nc1cccc(Nc2ncnc(N(C)n3c(=O)n(C(=O)C(C)(C)C)c4ccccc43)n2)c1,> 4.30
11,C=CC(=O)Nc1ccc(Nc2ncnc(N(C)c3cccc(C(N)=O)c3)n2)cc1,> 4.30
12,C=CC(=O)Nc1cccc(Nc2ncnc(N(C)c3ccc(OCc4ccccc4)cc3)n2)c1,> 4.30
13,C=C/C=C/C(=O)Nc1cccc(Nc2ncnc(Nc3ccc4c(ccn4Cc4ccccc4)c3)n2)c1,> 4.30
14,C=CC(=O)Nc1cccc(Nc2ncnc(Nc3ccc(C(=O)OC)cc3)n2)c1,> 4.30
15,CC#CC(=O)Nc1cccc(Nc2ncnc(N(CC)c3cccc4ccccc34)n2)c1,> 4.30
16,O=C(/C=C/c1cccc(Nc2ncnc(Nc3ccc4c(cnn4Cc4ccccc4)c3)n2)c1)NCCCN1CCOCC1,> 4.30
17,C=CCN(c1ccc2c(cnn2Cc2ccccc2)c1)c1ncnc(Nc2cccc(NC(=O)C#CC)c2)n1,> 4.30
18,C=CC(=O)Nc1ccc(Nc2ncnc(N(CC)c3cc(OC)c(OC)c(OCCN4CCOCC4)c3)n2)cc1,> 4.30
19,CC#CC(=O)Nc1cccc(Nc2ncnc(N(C)C3CC3c3ccc(Cl)cc3)n2)c1 (stereo unspecified),> 4.30

row,Structure (SMILES),pIC50
1,C=CC(=O)Nc1cccc(Nc2ncnc(N(C)c3cc(OC)c(OC)c(OCCN4CCOCC4)c3)n2)c1,> 4.30
2,C=CC(=O)Nc1cccc(Nc2ncnc(N(C)c3ccc(OCC)c(OCC)c3)n2)c1,> 4.30
3,C=CC(=O)Nc1cccc(Nc2ncnc(NN3CCCc4cc(C)ccc43)n2)c1,> 4.30
4,C=CC(=O)Nc1cccc(Nc2ncnc(Nc3ccc(F)c(Cl)c3)n2)c1,> 4.30
5,CC#CC(=O)Nc1cc(Nc2ncnc(Nc3ccc4c(cnn4Cc4ccccc4)c3)n2)ccc1OCCCC1CCN(C)CC1,> 4.30
6,C=CC(=O)Nc1cccc(Nc2ncnc(N(CC)c3ccc(OCCO)cc3)n2)c1,> 4.30
7,C=CCN(c1ncnc(Nc2cccc(NC(=O)C#CC)c2)n1)c1cccc2ccccc12,> 4.30
8,C=CC(=O)Nc1cccc(Nc2ncnc(N(CC)c3cccc4ccccc34)n2)c1,> 4.30
9,C=CC(=O)Nc1cccc(Nc2ncnc(N(CC)c3ccc(OC)c(OC)c3)n2)c1,> 4.30
10,CC#CC(=O)Nc1cccc(Nc2ncnc(n2)N(CC=C)c3ccc4NN(=Cc4c3)Cc5ccccn5)c1,> 4.30
11,C=CC(=O)Nc1cc(Nc2ncnc(NN3CCCc4ccc(Cl)cc43)n2)ccc1OCCCN1CCOCC1,> 4.30
12,C=CC(=O)Nc1ccc(Nc2ncnc(Nc3ccc(C(=O)OC)cc3)n2)cc1,> 4.30
13,C=CC(=O)Nc1cccc(Nc2ncnc(Nn3c(=O)[nH]c4ccccc43)n2)c1,> 4.30
14,C=CC(=O)Nc1ccc(Nc2ncnc(N(C)c3ccc(OC)c(OCCOC)c3)n2)cc1,> 4.30
15,CC#CC(=O)Nc1cccc(Nc2ncnc(Nc3ccc(OCc4ccccc4)c(Cl)c3)n2)c1,> 4.30
16,C=CC(=O)Nc1cccc(Nc2ncnc(N(C)c3ccc4c(ccn4Cc4ccccc4)c3)n2)c1,> 4.30
17,C=CC(=O)Nc1ccc(Nc2ncnc(Nc3cccc(Cl)c3)n2)cc1,> 4.30
18,CC#CC(=O)Nc1cccc(Nc2ncnc(N(CC)c3ccc(OCCOC)c(OC)c3)n2)c1,> 4.30
19,CC#CC(=O)Nc1cccc(Nc2ncnc(Nc3cc(OC)c(OC)c(OCCN4CCOCC4)c3)n2)c1,> 4.30
